Earlier results as cited in US8303934B2, “Methods and compositions of [32P]-labeled adenine nucleotides for the treatment of atherosclerosis, vascular arterial diseases and coronary artery diseases” (priority 2011, dated 2012).

System: established human xenographed tumors
Conditions: established human xenografted tumors in athymic mice; low-level doses

In the case of `Nc1ncnc2c1ncn2[C@@H]1O[C@H](COP(=O)(O)OP(=O)(O)OP(=O)(O)O)[C@@H](O)[C@H]1O` [[32P]ATP, [32P]adenosine 5′-triphosphate], the “activity as an anti-tumor cytotoxic agent” value is given as “very active”.
